Data as given in the CheMixHub viscosity set.
± gives the uncertainty stated by the source.

Test: xn = mol fraction of the nth substance listed

CCCCOCCO + NCCO showed a viscosity (293.15 K, 101 kPa, x2 = 0.177) of 4.615 ± 0.24 mPa·s, a viscosity (293.15 K, 101 kPa, x2 = 0.453) of 8.081 ± 0.41 mPa·s and a viscosity (293.15 K, 101 kPa, x2 = 0.659) of 12.25 ± 0.63 mPa·s. It also gave a viscosity (293.15 K, 101 kPa, x2 = 0.819) of 16.81 ± 0.85 mPa·s, a viscosity (293.15 K, 101 kPa, x2 = 0.946) of 21.65 ± 1.1 mPa·s and a viscosity (293.15 K, 101.3 kPa, x2 = 0.457) of 8.08 ± 0.18 mPa·s. For the same molecule, the viscosity (293.15 K, 101.3 kPa, x2 = 0.664) was 12.25 ± 0.27 mPa·s, the viscosity (298.15 K, 101 kPa, x2 = 0.177) was 3.961 ± 0.21 mPa·s and the viscosity (298.15 K, 101 kPa, x2 = 0.453) was 6.718 ± 0.34 mPa·s. It also gave a viscosity (298.15 K, 101 kPa, x2 = 0.659) of 9.951 ± 0.51 mPa·s, a viscosity (298.15 K, 101 kPa, x2 = 0.819) of 13.39 ± 0.68 mPa·s and a viscosity (298.15 K, 101 kPa, x2 = 0.946) of 17.02 ± 0.86 mPa·s. The viscosity (298.15 K, 101.3 kPa, x2 = 0.457) was 6.72 ± 0.15 mPa·s, the viscosity (298.15 K, 101.3 kPa, x2 = 0.664) was 9.95 ± 0.22 mPa·s and the viscosity (303.15 K, 101 kPa, x2 = 0.177) was 3.431 ± 0.18 mPa·s. The viscosity (303.15 K, 101 kPa, x2 = 0.453) was 5.65 ± 0.29 mPa·s, the viscosity (303.15 K, 101 kPa, x2 = 0.659) was 8.19 ± 0.42 mPa·s and the viscosity (303.15 K, 101 kPa, x2 = 0.819) was 10.84 ± 0.55 mPa·s. It also gave a viscosity (303.15 K, 101 kPa, x2 = 0.946) of 13.6 ± 0.69 mPa·s, a viscosity (303.15 K, 101.3 kPa, x2 = 0.457) of 5.65 ± 0.12 mPa·s and a viscosity (303.15 K, 101.3 kPa, x2 = 0.664) of 8.19 ± 0.18 mPa·s. The viscosity (308.15 K, 101 kPa, x2 = 0.177) was 2.994 ± 0.16 mPa·s, the viscosity (308.15 K, 101 kPa, x2 = 0.453) was 4.799 ± 0.25 mPa·s and the viscosity (308.15 K, 101 kPa, x2 = 0.659) was 6.823 ± 0.35 mPa·s. For the same molecule, the viscosity (308.15 K, 101 kPa, x2 = 0.819) was 8.898 ± 0.45 mPa·s, the viscosity (308.15 K, 101 kPa, x2 = 0.946) was 11.03 ± 0.56 mPa·s and the viscosity (308.15 K, 101.3 kPa, x2 = 0.457) was 4.8 ± 0.1 mPa·s. For the same molecule, the viscosity (308.15 K, 101.3 kPa, x2 = 0.664) was 6.82 ± 0.15 mPa·s, the viscosity (313.15 K, 101 kPa, x2 = 0.177) was 2.629 ± 0.14 mPa·s and the viscosity (313.15 K, 101 kPa, x2 = 0.453) was 4.115 ± 0.21 mPa·s. The viscosity (313.15 K, 101 kPa, x2 = 0.659) was 5.747 ± 0.29 mPa·s, the viscosity (313.15 K, 101 kPa, x2 = 0.819) was 7.395 ± 0.38 mPa·s and the viscosity (313.15 K, 101 kPa, x2 = 0.946) was 9.061 ± 0.46 mPa·s. The viscosity (313.15 K, 101.3 kPa, x2 = 0.457) was 4.11 ± 0.09 mPa·s, the viscosity (313.15 K, 101.3 kPa, x2 = 0.664) was 5.75 ± 0.13 mPa·s and the viscosity (318.15 K, 101 kPa, x2 = 0.177) was 2.325 ± 0.12 mPa·s. For the same molecule, the viscosity (318.15 K, 101 kPa, x2 = 0.453) was 3.559 ± 0.18 mPa·s, the viscosity (318.15 K, 101 kPa, x2 = 0.659) was 4.888 ± 0.25 mPa·s and the viscosity (318.15 K, 101 kPa, x2 = 0.819) was 6.212 ± 0.32 mPa·s. For the same molecule, the viscosity (318.15 K, 101 kPa, x2 = 0.946) was 7.538 ± 0.38 mPa·s, the viscosity (318.15 K, 101.3 kPa, x2 = 0.457) was 3.56 ± 0.08 mPa·s and the viscosity (318.15 K, 101.3 kPa, x2 = 0.664) was 4.89 ± 0.11 mPa·s. It also gave a viscosity (323.15 K, 101 kPa, x2 = 0.177) of 2.07 ± 0.11 mPa·s, a viscosity (323.15 K, 101 kPa, x2 = 0.453) of 3.101 ± 0.16 mPa·s and a viscosity (323.15 K, 101 kPa, x2 = 0.659) of 4.197 ± 0.21 mPa·s. The viscosity (323.15 K, 101 kPa, x2 = 0.819) was 5.271 ± 0.27 mPa·s, the viscosity (323.15 K, 101 kPa, x2 = 0.946) was 6.342 ± 0.32 mPa·s and the viscosity (323.15 K, 101.3 kPa, x2 = 0.457) was 3.1 ± 0.07 mPa·s. For the same molecule, the viscosity (323.15 K, 101.3 kPa, x2 = 0.664) was 4.2 ± 0.09 mPa·s.
Molecule CCCCNCCO + O has a viscosity (293.15 K, 100 kPa, x2 = 0.62) of 29 ± 0.5 mPa·s, a viscosity (303.15 K, 100 kPa, x2 = 0.62) of 16.7 ± 0.3 mPa·s and a viscosity (313.15 K, 100 kPa, x2 = 0.62) of 10.3 ± 0.2 mPa·s. The viscosity (323.15 K, 100 kPa, x2 = 0.62) was 6.73 ± 0.11 mPa·s.
With CCOS(=O)(=O)[O-].CC[N+](CC)=C(N(C)C)N(C)C + O the viscosity (293.15 K, 100 kPa, x1 = 0.0999) was 12.38 ± 0.99 mPa·s, the viscosity (293.15 K, 100 kPa, x1 = 0.2003) was 25.31 ± 2 mPa·s and the viscosity (293.15 K, 100 kPa, x1 = 0.3005) was 39.06 ± 3.1 mPa·s. For the same molecule, the viscosity (293.15 K, 100 kPa, x1 = 0.4004) was 53.18 ± 4.3 mPa·s, the viscosity (293.15 K, 100 kPa, x1 = 0.4989) was 68.18 ± 5.5 mPa·s and the viscosity (293.15 K, 100 kPa, x1 = 0.6001) was 85.88 ± 7 mPa·s. It also gave a viscosity (293.15 K, 100 kPa, x1 = 0.7) of 107 ± 8.9 mPa·s, a viscosity (293.15 K, 100 kPa, x1 = 0.801) of 132.6 ± 11 mPa·s and a viscosity (293.15 K, 100 kPa, x1 = 0.8982) of 160.6 ± 14 mPa·s. The viscosity (298.15 K, 100 kPa, x1 = 0.0999) was 10.01 ± 0.8 mPa·s, the viscosity (298.15 K, 100 kPa, x1 = 0.2003) was 19.81 ± 1.6 mPa·s and the viscosity (298.15 K, 100 kPa, x1 = 0.3005) was 29.97 ± 2.4 mPa·s. For the same molecule, the viscosity (298.15 K, 100 kPa, x1 = 0.4004) was 40.42 ± 3.2 mPa·s, the viscosity (298.15 K, 100 kPa, x1 = 0.4989) was 51.48 ± 4.1 mPa·s and the viscosity (298.15 K, 100 kPa, x1 = 0.6001) was 64.33 ± 5.2 mPa·s. For the same molecule, the viscosity (298.15 K, 100 kPa, x1 = 0.7) was 79.13 ± 6.4 mPa·s, the viscosity (298.15 K, 100 kPa, x1 = 0.801) was 97.08 ± 8 mPa·s and the viscosity (298.15 K, 100 kPa, x1 = 0.8982) was 116.9 ± 9.9 mPa·s. It also gave a viscosity (303.15 K, 100 kPa, x1 = 0.0999) of 8.224 ± 0.66 mPa·s, a viscosity (303.15 K, 100 kPa, x1 = 0.2003) of 15.93 ± 1.3 mPa·s and a viscosity (303.15 K, 100 kPa, x1 = 0.3005) of 23.79 ± 1.9 mPa·s. It also gave a viscosity (303.15 K, 100 kPa, x1 = 0.4004) of 31.86 ± 2.6 mPa·s, a viscosity (303.15 K, 100 kPa, x1 = 0.4989) of 40.31 ± 3.2 mPa·s and a viscosity (303.15 K, 100 kPa, x1 = 0.6001) of 49.98 ± 4 mPa·s. The viscosity (303.15 K, 100 kPa, x1 = 0.7) was 60.7 ± 4.9 mPa·s, the viscosity (303.15 K, 100 kPa, x1 = 0.801) was 73.9 ± 6 mPa·s and the viscosity (303.15 K, 100 kPa, x1 = 0.8982) was 88.11 ± 7.2 mPa·s. It also gave a viscosity (308.15 K, 100 kPa, x1 = 0.0999) of 6.765 ± 0.54 mPa·s, a viscosity (308.15 K, 100 kPa, x1 = 0.2003) of 12.88 ± 1 mPa·s and a viscosity (308.15 K, 100 kPa, x1 = 0.3005) of 19.09 ± 1.5 mPa·s. It also gave a viscosity (308.15 K, 100 kPa, x1 = 0.4004) of 25.43 ± 2 mPa·s, a viscosity (308.15 K, 100 kPa, x1 = 0.4989) of 32.02 ± 2.6 mPa·s and a viscosity (308.15 K, 100 kPa, x1 = 0.6001) of 39.28 ± 3.2 mPa·s. The viscosity (308.15 K, 100 kPa, x1 = 0.7) was 47.26 ± 3.8 mPa·s, the viscosity (308.15 K, 100 kPa, x1 = 0.801) was 57.08 ± 4.6 mPa·s and the viscosity (308.15 K, 100 kPa, x1 = 0.8982) was 67.41 ± 5.4 mPa·s. For the same molecule, the viscosity (313.15 K, 100 kPa, x1 = 0.0999) was 5.628 ± 0.45 mPa·s, the viscosity (313.15 K, 100 kPa, x1 = 0.2003) was 10.63 ± 0.85 mPa·s and the viscosity (313.15 K, 100 kPa, x1 = 0.3005) was 15.72 ± 1.3 mPa·s. For the same molecule, the viscosity (313.15 K, 100 kPa, x1 = 0.4004) was 20.82 ± 1.7 mPa·s, the viscosity (313.15 K, 100 kPa, x1 = 0.4989) was 26.05 ± 2.1 mPa·s and the viscosity (313.15 K, 100 kPa, x1 = 0.6001) was 31.62 ± 2.5 mPa·s. The viscosity (313.15 K, 100 kPa, x1 = 0.7) was 37.7 ± 3 mPa·s, the viscosity (313.15 K, 100 kPa, x1 = 0.801) was 45.18 ± 3.6 mPa·s and the viscosity (313.15 K, 100 kPa, x1 = 0.8982) was 53.08 ± 4.2 mPa·s. For the same molecule, the viscosity (318.15 K, 100 kPa, x1 = 0.0999) was 4.66 ± 0.37 mPa·s, the viscosity (318.15 K, 100 kPa, x1 = 0.2003) was 8.802 ± 0.71 mPa·s and the viscosity (318.15 K, 100 kPa, x1 = 0.3005) was 13.04 ± 1.1 mPa·s. The viscosity (318.15 K, 100 kPa, x1 = 0.4004) was 17.16 ± 1.4 mPa·s, the viscosity (318.15 K, 100 kPa, x1 = 0.4989) was 21.39 ± 1.7 mPa·s and the viscosity (318.15 K, 100 kPa, x1 = 0.6001) was 25.68 ± 2.1 mPa·s. For the same molecule, the viscosity (318.15 K, 100 kPa, x1 = 0.7) was 30.35 ± 2.4 mPa·s, the viscosity (318.15 K, 100 kPa, x1 = 0.801) was 36.2 ± 2.9 mPa·s and the viscosity (318.15 K, 100 kPa, x1 = 0.8982) was 42.47 ± 3.4 mPa·s. It also gave a viscosity (323.15 K, 100 kPa, x1 = 0.0999) of 3.828 ± 0.31 mPa·s, a viscosity (323.15 K, 100 kPa, x1 = 0.2003) of 7.374 ± 0.59 mPa·s and a viscosity (323.15 K, 100 kPa, x1 = 0.3005) of 10.99 ± 0.88 mPa·s. For the same molecule, the viscosity (323.15 K, 100 kPa, x1 = 0.4004) was 14.3 ± 1.1 mPa·s, the viscosity (323.15 K, 100 kPa, x1 = 0.4989) was 17.61 ± 1.4 mPa·s and the viscosity (323.15 K, 100 kPa, x1 = 0.6001) was 21.15 ± 1.7 mPa·s. The viscosity (323.15 K, 100 kPa, x1 = 0.7) was 24.97 ± 2 mPa·s, the viscosity (323.15 K, 100 kPa, x1 = 0.801) was 29.66 ± 2.4 mPa·s and the viscosity (323.15 K, 100 kPa, x1 = 0.8982) was 34.73 ± 2.8 mPa·s.
